Measurements: ChEMBL document CHEMBL3400053, “trans-3,4-Disubstituted pyrrolidines as inhibitors of the human aspartyl protease renin. Part II: prime site exploration using an oxygen linker” (Bioorg Med Chem Lett, 2015)

Assays:
[1] = molecular target: T1, Alpha-1A adrenergic receptor (Homo sapiens, UniProt P35348); assay: Inhibition of alpha-adrenoceptor 1A (unknown origin)
T1 sequence (P35348 whole entry): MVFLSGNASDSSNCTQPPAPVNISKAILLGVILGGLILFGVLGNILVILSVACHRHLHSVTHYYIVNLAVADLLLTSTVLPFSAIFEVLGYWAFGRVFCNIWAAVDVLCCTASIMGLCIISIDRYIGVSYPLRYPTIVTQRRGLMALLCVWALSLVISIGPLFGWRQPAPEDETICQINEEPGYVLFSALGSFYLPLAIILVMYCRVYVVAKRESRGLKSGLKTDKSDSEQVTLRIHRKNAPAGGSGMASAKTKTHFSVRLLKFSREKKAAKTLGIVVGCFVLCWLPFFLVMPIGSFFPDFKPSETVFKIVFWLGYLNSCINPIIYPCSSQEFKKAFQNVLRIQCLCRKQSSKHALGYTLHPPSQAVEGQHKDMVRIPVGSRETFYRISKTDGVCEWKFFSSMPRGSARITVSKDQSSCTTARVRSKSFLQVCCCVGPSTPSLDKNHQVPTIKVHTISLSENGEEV

[2] = test system: Rattus norvegicus; assay: Reduction in mean arterial blood pressure in hypertensive telemetered double-transgenic rat overexpressing human renin and angiotensinogen at 6 mg/kg, po; assay type: functional
[3] = molecular target: T2, Alpha-2A adrenergic receptor (Homo sapiens, UniProt P08913); assay: Inhibition of alpha-adrenoceptor 2A (unknown origin)
T2 sequence (P08913 whole entry): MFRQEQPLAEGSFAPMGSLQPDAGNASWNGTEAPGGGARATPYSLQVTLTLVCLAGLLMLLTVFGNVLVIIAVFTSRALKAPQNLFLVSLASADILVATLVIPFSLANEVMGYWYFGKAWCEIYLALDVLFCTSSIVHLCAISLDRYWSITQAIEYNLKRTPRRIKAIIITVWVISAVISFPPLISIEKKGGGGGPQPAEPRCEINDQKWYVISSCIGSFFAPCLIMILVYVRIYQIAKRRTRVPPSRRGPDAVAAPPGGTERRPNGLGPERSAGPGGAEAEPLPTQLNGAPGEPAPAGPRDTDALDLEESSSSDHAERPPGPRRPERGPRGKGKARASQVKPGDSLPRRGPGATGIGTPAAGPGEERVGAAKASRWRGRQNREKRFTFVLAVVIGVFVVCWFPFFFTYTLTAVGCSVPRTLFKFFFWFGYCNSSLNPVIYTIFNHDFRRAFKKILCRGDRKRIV

[4] = molecular target: T3, Beta-secretase 2 (Homo sapiens, UniProt Q9Y5Z0); assay: Inhibition of BACE2 (unknown origin)
T3 sequence (Q9Y5Z0 whole entry): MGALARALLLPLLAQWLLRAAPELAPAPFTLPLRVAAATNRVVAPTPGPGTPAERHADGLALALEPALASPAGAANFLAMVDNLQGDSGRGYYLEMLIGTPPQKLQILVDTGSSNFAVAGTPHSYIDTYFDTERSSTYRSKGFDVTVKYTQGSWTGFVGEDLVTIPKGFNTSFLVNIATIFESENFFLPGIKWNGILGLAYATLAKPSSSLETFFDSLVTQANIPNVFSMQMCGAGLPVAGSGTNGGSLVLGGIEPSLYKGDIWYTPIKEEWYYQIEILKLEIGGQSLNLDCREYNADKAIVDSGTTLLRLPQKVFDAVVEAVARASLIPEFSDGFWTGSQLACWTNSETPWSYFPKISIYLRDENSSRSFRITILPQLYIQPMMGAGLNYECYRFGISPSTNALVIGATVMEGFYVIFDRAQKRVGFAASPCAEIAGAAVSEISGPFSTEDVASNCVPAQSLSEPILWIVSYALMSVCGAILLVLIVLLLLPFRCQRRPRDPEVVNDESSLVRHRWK

What does the source list for COCCCOc1cc(C(=O)N(C[C@@H]2CNC[C@H]2OC(=O)NCc2ccccc2)C(C)C)ccc1OC?
IC50 [1]: 500 nM; Activity [2]: 43 mmHg; IC50 [3]: 1000 nM; IC50 [4]: > 30000 nM
